Reference: patent publication EP0256909B1, “N,N-bis-(4-fluorophenyl) carbamoyl acetohydroxamic acid and pharmaceutical composition containing it” (priority 1986, dated 1988)

Assays:
souris [1] = assay: Interaction with barbital; assay type: in vivo; conditions: comparison section
Experimental: Trente minutes après l'administration de CRL 41131, des lots de 10 souris reçoivent une injection intrapéritonéale de barbital (220 mg/kg).

rat = assay: Interaction with amphetamine; assay type: in vivo; conditions: comparison section, no dose given
in vivo = conditions: mouse, in vivo; for LD50 at 24 h: dose létale 50% (DL50), 24 h after administration
Experimental: Le CRL 41131, en suspension dans une solution de gomme arabique à 5%, a été administré par voie intrapéritonéale sous un volume de 20 ml/kg chez la souris (mâle, NMRI, Evic Ceba) et de 5 ml/kg chez le rat (mâle, CD1, Sprague Dawley, Charles River).
Aussitôt après l'administration de CRL 41131, les souris groupées par lots de 10 sont placées dans des boîtes en Plexiglass (20 x 10 x 10 cm).
On note le nombre d'animaux morts, toutes les heures pendant 4 h et après 24, 48 et 72 h.
La toxicité du CRL 41131 est déterminée dans les mêmes conditions sur des lots de souris placées à raison d'une par boîte.

souris [2] = assay: Electroshock test; assay type: in vivo; conditions: comparison section, no dose given
souris [3] = assay: Interaction with oxotremorine; assay type: in vivo; conditions: mouse, oxotremorine 0,5 mg/kg i.p.
Experimental: Le CRL 41131 est administré à des lots de 6 souris 30 min avant l'injection intrapéritonéale de 0,5 mg/kg d'oxotrémorine.

[4] = results given in the earlier document; cited from earlier work
souris [5] = assay: Intergroup aggressiveness; assay type: in vivo; conditions: 32 et 256 mg/kg, comparison section
Experimental: Après avoir séjourné pendant 3 semaines dans chacune des moitiés d'une cage séparées par une cloison opaque, des groupes de 3 souris reçoivent le CRL 41131. Trente minutes plus tard, les deux groupes d'une même cage sont réunis par retrait de la cloison et on note le nombre de combats qui surviennent en 10 min.

souris [6] = assay: Interaction with reserpine; assay type: in vivo; conditions: 64 mg/kg, comparison section
Experimental: Quatre heures après l'injection intrapéritonéale de 2,5 mg/kg de réserpine, des lots de 6 souris reçoivent le CRL 41131.

O=C(CC(=O)N(c1ccccc1)c1ccccc1)NO [CRL 40385, reference compound]
sommeil (association au barbital) (souris [1]; 512 mg/kg): il ne le fait plus | sommeil (association au barbital) (souris [1]; doses below 512 mg/kg): diminue d'abord le sommeil | test à l'amphétamine: stéréotypies du rat (rat): prolonge les stéréotypies du rat | LD50 at 24 h (in vivo; ip, grouped mice): ~1050 mg/kg | LD50 at 24 h (in vivo; ip, isolated mice): ~1500 mg/kg | test à l'électrochoc (souris [2]): s'oppose aux convulsions | action hypothermisante de l'oxotrémorine (température) (souris [3]): antagonise l'hyperthermie | intensité des tremblements provoqués par l'oxotrémorine (souris [3]): diminue l'intensité des tremblements | effet mis en évidence par un ensemble de tests [4]: effet anti-fatigue | agressivité intergroupe des souris (souris [5]): augmentation | test à la réserpine: hypothermie (souris [6]): s'oppose modérément

CC(Cc1ccccc1)N(C)Cc1ccccc1 (stereo not shown) [benzophétamine, reference compound]
selectivity ratio (in vivo; ip, rapport, LD50 ratio isolated/grouped mice (formula not readable), same conditions, 24 h): ~4

CCN(CC)C(C)C(=O)c1ccccc1 (stereo not shown) [diéthylpropion, reference compound]
selectivity ratio at 24 h (in vivo): ~8
